The values that follow come from patent publication US12607637B2, “Super-resolution morphology-correlated detection of labile zinc” (University of Cincinnati, priority 2020, dated 2026).

Where “and” joins values, the source holds several entries; their conditions need not be identical. Identical values can stand only once.

Data set [1] relates to HeLa cells. In words: Photostability in cells under continuous laser stimulation. The format is cell-based. As for the experimental part:
At the same time, because NapBu-BPEA's optical stability is an important factor in super-resolution imaging, a long-term continuous laser (300 s) stimulation of cells was carried out, capturing images every 20 s in order to monitor the photostability of NapBu-BPEA and MTDR in cells (FIG. 4(f), (g)). […] These characteristics enabled NapBu-BPEA to dynamically monitor cellular ultrastructures with long-term super-resolution imaging.

Data set [2] can be described thus: Zn^2+ fluorescence titration, Job's plot, detection limit, binding constant, metal ion selectivity and TPEN reversibility in HEPES/DMSO. How it is done: (§1) The stock solution of NapBu-BPEA was prepared with DMSO of HPLC pure grade to make the concentration as 10 mM, and frozen after packing at −20° C. The sample solutions were diluted to the final concentration as 10 μM with 3 mL HEPES buffer (50 mM, 100 mM KNO3, 10% DMSO, pH 7.2) in quartz cuvettes with 1 cm path lengths. The fluorescent spectra were recorded upon the excitation of 450 nm.
(§2) The Zn^2+ titration spectra were recorded by adding in aliquots Zn^2+ solution from 0 to 15 μM into the NapBu-BPEA solution (10 μM). The detection limit of NapBu-BPEA was determined by collecting the fluorescence spectra of NapBu-BPEA for 6 times to obtain the background noise (a). The probe's fluorescent sensing selectivity of NapBu-BPEA was recorded after adding metal cation (1000 eq K^+, Na^+, Ca^2+, Mg^2+; 1 eq Cd^2+, Ni^2+, Cr^3+, Pb^2+, Al^3+, Co^2+, Fe^2+, Fe^3+, Ba^2+, Mn^2+) to the NapBu-BPEA solution. The fluorescence quantum yields were determined by using Ru(bpy)3^2+ (Φ=0.04) in DMSO/HEPES (v:v, 1:9)(λex=450 nm) as the reference. To determine binding constant, various amounts of Zn(NO3)2 (0˜9 mM) were added to NapBu-BPEA solution buffered with DMSO/HEPES (50 mM, pH 7.21, 100 mM KNO3) containing 10 mM EGTA. The pH stability was measured by recording the fluorescence spectra of NapBu-BPEA solution in the presence of Zn^2+ at different pH adjusted with KOH and HCl.

The nature of data set [3]: Spectroscopic study: fluorescence quantum yield and pH stability in DMSO/HEPES. The data set is classed as physicochemical. Particulars: probe bound to Zn^2+, pH titration. How it is done:
as §1, §2

The test system of a further data set is ATG13 KO HeLa cells. In words: SIM imaging of labile Zn^2+ after CCCP in autophagy-deficient cells. The format is cell-based. As for the experimental part:
(§3) Wild-type, FIP200 and ATG13 KO HeLa cell lines were gifted from Dr. Jun-Lin Guan's lab (University of Cincinnati). Cells were cultured in DMEM supplemented 10% FBS and 100 U/mL penicillin-streptomycin (Gibco) in 5% CO2 incubator at 37° C.
(§4) Considering that ATG13 and FIP200 are essential proteins for autophagy, to further elucidate the relationship between autophagy and changes in level of Zn^2+ two stable knockout (KO) cell lines were obtained (ATG13 KO HeLa cells and FIP200 KO HeLa cells) via CRISPR/Cas9 gene editing technology.

The next data set concerns FIP200 KO HeLa cells. The description is as above. The data set is classed as cell-based. How it is done: as §3, §4
Data set [4] deals with HeLa cells. The data set is described as follows: Cell viability determination via WST (LDH release) assay. The data set is classed as cell-based. Particulars: 20 μM, 24 h. As for the experimental part: The suspension of HeLa cells diluted with 50 μL DMEM was plated into 96-well plate. The inoculated cells were pre-cultured overnight in 96-well plate and replaced with a new 50 μL DMEM. 50 μL DMEM containing different concentrations of NapBu-BPEA was added and cultured in CO2 incubator at 37° C. for 24 h. After 10 μL lysis buffer was added to the high contrast wells, 30 min was cultured in the CO2 incubator at 37° C. After 100 μL working solution was added to each well, it was cultured for 0.5 h under dark and room temperature. After 50 μL stop solution was added to each well, the absorbance of 490 nm was determined immediately by a microplate reader (Thermomax, Molecular Devices).
Background: Release of lactate dehydrogenase indicates damage to the cell membrane.

Data set [5] deals with HeLa cells. In words: SIM imaging of labile Zn^2+ during CCCP- or EBSS-induced autophagy. The format is cell-based. The source says:
The SIM images were acquired using a Nikon N-SIM system. The blue imaging channel for Hoechst 33258 with emission bandwidth at 420-495 nm upon excitation at 405 nm, the green imaging channel for NapBu-BPEA with emission bandwidth at 500-550 nm upon excitation at 488 nm, the red imaging channel for ER-Tracker Red, LysoTracker Red and DAPRed with emission bandwidth at 570-640 nm upon excitation at 561 nm, the magenta imaging channel for MitoTracker Deep Red with emission bandwidth at 660-735 nm upon excitation at 640 nm were utilized. The imaging data analysis and thermal map construction were performed via analysis with ImageJ.
The intracellular Zn^2+ level in autophagy was imaged in HeLa cells. Prior to CCCP (10 μM, 24 h) or EBSS treatment ([…]), the cells were stained with DAPRed (1 μM, 30 min). The cells were finally stained by NapBu-BPEA (10 μM, 1 h) before SIM imaging.

Data set [6] concerns HeLa cells. The data set is described as follows: SIM imaging of intracellular labile Zn^2+ on ZnPT loading and TPEN scavenging. The format is cell-based. As for the experimental part:
In view of these promising results, a 1:2 mixture of ZnCl2 and pyrithione sodium salt, a cell-permeable Zn^2+ carrier (ZnPT) to transport exogenous Zn^2+ to cells, and a cell-permeable Zn^2+-chelating agent, TPEN, were used to evaluate the reversibility of fluorescence response to Zn^2+ in living cells according to methods described elsewhere. To determine the entry time of exogenous Zn^2+ into cells, NapBu-BPEA was incubated and an initial image was captured, after which 50 μM ZnPT (50 μM ZnCl2/100 μM pyrithione sodium salt) was used to replace the culture medium in dye-free and serum-free DMEM. […] The variance may be attributed to the difference in lipophilicity.
Next, NapBu-BPEA was investigated for its intracellular labile Zn^2+ imaging ability. Imaging experiments were performed in HeLa cells upon exogenous Zn^2+ loading via incubation with zinc pyrithione cmplex (ZnPT), a cell-permeable Zn^2+ carrier.
Intracellular labile Zn^2+ enhancement processes were tracked by recording SIM images every 2 min. […] While not desiring to be bound by theory, it is proposed that the butyl tail of NapBu-BPEA is responsible for the retained multiple organelle accumulation behavior of NapBu-BPEA upon Zn^2+ binding.

Setting [7] is: CCCP treatment, regions selected by morphology.

In the case of `C[N+]1=C(/C=C/C=C/C=C2\N(Cc3ccc(CCl)cc3)c3ccccc3C2(C)C)C(C)(C)c2ccccc21.[Cl-]` [MTDR, reference compound], in the data set on HeLa cells [1] (after 120 s of laser stimulation), the fluorescence intensity remaining entry is given as “less than 30%”.

Broadly, the Kd is the concentration at which binding is half-saturated. Regarding `CCCCN1C(=O)c2cccc3c(NCCN(Cc4ccccn4)Cc4ccccn4)ccc(c23)C1=O` [NapBu-BPEA, 2,4-(bis(pyridin-2-ylmethyl)aminoethyl)amino-N-n-butyl-1,8-naphthalimide], the photobleaching entry with HeLa cells [1] (within 300 s of laser stimulation) is “negligible photobleaching”. For the same molecule, the “limit of detection for Zn^2+” value in data set [2] (3 σ/slope method) turned out to be 54.5 nM. Besides, in data set [2] (1000 eq K+, Na+, Ca2+, Mg2+, 1 eq other cations, response only to Cd^2+), the “fluorescence selectivity against other metal ions” value is “specific fluorescence selectivity for Zn^2+”. The equilibrium dissociation constant (Kd) in data set [2] (HEPES 50 mM, 100 mM KNO3, 10% DMSO, 10 mM EGTA, pH 7.21, read-out: dissociation constant (Kd) of the complex between Zn^2+ and NapBu-BPEA) came out at 4.98 nM. For the same molecule, the “reversibility of fluorescence response on TPEN addition” value in data set [2] (Zn^2+ 10 μM then TPEN 10 μM, five on-off cycles) is reported as “favorable reversible response to Zn^2+”. In addition, the “emission enhancement on Zn^2+ titration” value in data set [2] (at 540 nm, 10 μM probe) was found to be 3.6 fold. In addition, the “pH range of stable fluorescence response” value in data set [3] is reported as 4-8 pH. Moreover, the “fluorescence intensity, CCCP-treated versus untreated” value in the data set with ATG13 KO HeLa cells was “no significant change in fluorescence intensity”. Besides, the “fluorescence intensity, CCCP-treated versus untreated” value in the data set on FIP200 KO HeLa cells is on record as “no significant change in fluorescence intensity”. For the same molecule, in the data set with HeLa cells [4], the “activity of lactate dehydrogenase released into the medium” value was “less than 20%” and the cell viability entry is listed as “exceeded 80%”. Moreover, the “green fluorescence intensity in mitophagic versus non-autophagic cells” value with HeLa cells [5] (CCCP 10 μM, 24 h, probe 10 μM, 1 h) was approximately 2.0 fold. Besides, in the data set on HeLa cells [5] (setting [7]), the “increase of Zn^2+ level (fluorescence intensity) in endoplasmic reticulum during autophagy” value was determined as 1.55 fold and the “increase of Zn^2+ level (fluorescence intensity) in mitochondria during autophagy” value was determined as 1.89 fold. Besides, in the data set with HeLa cells [5] (CCCP-induced mitophagy), the “fluorescence signal of CCCP-treated versus untreated cells” value is “improved significantly”. Besides, in the data set with HeLa cells [5] (EBSS starvation 24 h), the “fluorescence intensity of EBSS-treated cells” value is “decreased”. For the same molecule, in the data set on HeLa cells [6] (50 μM ZnPT, images every 2 min), the “time until fluorescence intensity is balanced/stable after exogenous Zn^2+” value is 6 min and 4 min. For the same molecule, the “reversibility of intracellular response” value with HeLa cells [6] (100 μM TPEN added to cells) was “respond reversibly to intracellular Zn^2+”.
